# Measurements as given in patent US8614091B2, “PNMT as a novel marker for progenitor cells” (priority 2004, dated 2013).
# “Also recorded” adds a separate entry of the source.
# How the values were obtained:
# [1] = test system: Dbh-/- embryos; settings: DOPS in the maternal drinking water; cited from earlier work
# [2] = test system: neonatal rat cardiomyocytes; test: Beating rate measurements in cultured neonatal rat cardiomyocytes; format: cell-based; settings: for decrease in the beating rate: acute, spontaneously beating cultures after 7 d; for effect on beating rate, acute treatment: increasing concentrations, within seconds to 1-2 min after drug application, normal serum
# Experimental: D) Preparation of rat neonatal cardiomyocyte cultures. […] The heart was immediately removed under aseptic conditions and placed in ice-cold sterile HBSS (no Ca^++ or Mg^++). Enzymatic and mechanical dissociation of cardiomyocytes was then performed using the Neonatal Cardiomyocyte Isolation System supplied by Worthington Biochemicals (Freehold, N.J., U.S.A.). The hearts were minced on ice and digested overnight at 4° C. with purified trypsin (10 μg/mL) in HBSS. On the following morning, the digested tissue was transferred to a 50-mL conical tube and purified soybean trypsin inhibitor (40 μg/mL) was added to terminate trypsinization. The tissue was oxygenated and warmed to 37° C. […] C. with intermittent gentle swirling. Mild trituration was then used to mechanically dissociate the digested tissue, and single-cell suspensions were obtained by filtering this digested material through 70 μm sterile mesh filters. The cells were collected by low-speed centrifugation. The supernatant was discarded and the cell pellet resuspended in DMEM (high glucose, Biofluids, Rockville, Md., U.S.A.) culture medium containing 10% defined iron-supplemented bovine calf serum (Hyclone Laboratories, Logan, Utah, U.S.A.), 2 mM glutamine, and gentamicin sulfate (50 μg/mL). In some experiments, the serum was pretreated with charcoal before adding it to the media (10% volume as above) to remove possible trace amounts of catecholamines that may have been present The cells were then “preplated” to remove fibroblasts, and the remaining cells counted and seeded onto multi-well culture plates at a density of 75,000 cells per cm^2. The media was changed every 2-3 d beginning the day after seeding. Bromodeoxyuridine (0.1 mM) was added to the culture media for the first 3 d to further minimize contamination from fibroblasts.
# E) Beating rate measurements. Beating activity of cultured cardiomyocytes was measured by edge-detection using photodiode sensors attached to a monitor screen depicting beating cells viewed by videomicroscopy. […] The photodiode sensor signal was filtered with an 8-pole Bessel low-pass filter (Model 900CT, Frequency Devices, Inc., Havervill, Mass., U.S.A.) with a cutoff frequency of 1000 Hz, and relayed to a PC equipped with a National Instruments data acquisition board and LabView 4.0 processing software. Parallel outputs were also directed to a Gould TA550 chart recorder and an oscilloscope. Data were continuously acquired and stored to disk for later analysis. Drugs were added and immediately mixed in the media overlying the cells in each well. Predrug (baseline) measurements were performed first, and the indicated drug(s) were added as a 100× stock to the preexisting media on each well, and rapidly mixed. Beating rates were remeasured within 2-3 min after drug addition.
# F) Data analysis. The number of beating rate measurements was typically obtained from different wells of multi-well plates (usually six wells per plate), seeded from the same preparation of myocytes. Measurements were obtained immediately before and after the addition of specified drugs. In the reserpine experiment, beating rate measurements were obtained at multiple time-points after drug administration. Each experiment was replicated at least twice using independently isolated cultures, and a representative result from each is shown. Unless otherwise indicated, all beating rate measurements were performed on cells that had been cultured for 7-9 d. All data are expressed as mean.+−.SEM. Statistical significance was assessed by one-way ANOVA, with p<0.05 required to reject the null hypothesis. Posthoc testing was performed using Bonferroni's correction for multiple comparisons.
smiles,measurement,setting,value
N[C@H](C(=O)O)[C@H](O)c1ccc(O)c(O)c1 [DOPS],rescue of Dbh-/- embryos that die of cardiovascular failure in utero,[1],rescued
CNC[C@H](O)c1cccc(O)c1 [L-phenylephrine],reversal of prazosin-induced decrease in beating rate,"[2]; L-phenylephrine at increasing concentrations, in presence of prazosin 1 μM, charcoal-stripped serum",dose-dependent reversal; also recorded: reversed
CNC[C@H](O)c1ccc(O)c(O)c1 [epinephrine],rescue of timolol-suppressed beating rate in charcoal-stripped serum media,[2]; epinephrine 1 μM added in presence of timolol 10 μM,fully rescued; also recorded: full recovery of beating rate
same,duration of recovery of beating rate,"[2]; epinephrine 1 μM in presence of timolol 10 μM, charcoal-stripped serum",30 to 60 min
NC[C@H](O)c1ccc(O)c(O)c1 [norepinephrine],reversal of reserpine-induced decrease in beating rate,"[2]; NE 1 μM, about 2 min after addition, after 8 h of reserpine 2.5 μM",largely reversed
COc1cc2nc(N3CCN(C(=O)c4ccco4)CC3)nc(N)c2cc1OC [prazosin],decrease in the beating rate,[2]; 1 μM prazosin,~25%
same,decrease in the beating rate,[2]; 10 μM prazosin,> 85%
same,"effect on beating rate, acute treatment",[2],dose-dependent decreases in the beating rate
same,effect on beating rate in media with charcoal-stripped serum,[2]; prazosin 1 μM vs baseline control,significant decreases in beating rates; also recorded: significant reduction in the beating rate
COC(=O)[C@H]1[C@H]2C[C@@H]3c4[nH]c5cc(OC)ccc5c4CCN3C[C@H]2C[C@@H](OC(=O)c2cc(OC)c(OC)c(OC)c2)[C@@H]1OC [reserpine],"effect on beating rate, catecholamine depletion","[2]; increasing concentrations of reserpine, measured up to 8 h",Significant dose-dependent decreases in beating rates
CC(C)(C)NC[C@H](O)COc1nsnc1N1CCOCC1 [timolol],"effect on beating rate, acute treatment",[2],significant concentration-dependent slowing in the beating rate
same,effect on beating activity in media with charcoal-stripped serum,"[2]; timolol 10 μM, continuous, assessed at 24 and 72 h",strongly suppressed beating activity
